# Assay results as given in ChEMBL document CHEMBL5608247, “Development of a First-in-Class DNMT1/HDAC Inhibitor with Improved Therapeutic Potential and Potentiated Antitumor Immunity” (J Med Chem, 2024).
# Active and inactive are the calls of the source. No cut-off for these calls is given here.
# Assays:
# MV4-11 [1] = assay: Antiproliferative activity against human MV4-11 cells incubated for 96 hrs by CCK8 assay; type: functional, cell-based; conditions: MV4-11, 96 h
# MV4-11 [2] = assay: Antitumor activity against human MV4-11 cells xenografted in BALB/c nude mouse at 45 mg/kg, ip qd treated for 19 days relative to control; type: functional; conditions: MV4-11, 456 h, time 19 day, read-out: TGI
# [3] = Toxicity in BALB/c nude mouse xenografted with human MV4-11 cells assessed as body weight loss at 45 mg/kg, ip qd treated for 19 days; type: organism-based; conditions: in vivo, 456 h, time 19 day
# [4] = Toxicity in BALB/c nude mouse xenografted with human MV4-11 cells assessed as animal fatality at 45 mg/kg, ip qd treated for 19 days; type: organism-based; conditions: in vivo, 456 h, time 19 day
# [5] = molecular target: T1, DNA (cytosine-5)-methyltransferase 1 (Homo sapiens, UniProt P26358); assay: Induction of thermal stabilization of N-terminal 6xHis-FLAG-tagged […] human DNMT1 (698 to 1616 residues) extracted from Sf9 cells assessed as change in melting temperature at 10 uM by SYPRO Orange dye based PTS assay (reference value: 0.0 degreeC); type: cell-based
# T1 sequence (P26358 whole entry, the tested form may be a part): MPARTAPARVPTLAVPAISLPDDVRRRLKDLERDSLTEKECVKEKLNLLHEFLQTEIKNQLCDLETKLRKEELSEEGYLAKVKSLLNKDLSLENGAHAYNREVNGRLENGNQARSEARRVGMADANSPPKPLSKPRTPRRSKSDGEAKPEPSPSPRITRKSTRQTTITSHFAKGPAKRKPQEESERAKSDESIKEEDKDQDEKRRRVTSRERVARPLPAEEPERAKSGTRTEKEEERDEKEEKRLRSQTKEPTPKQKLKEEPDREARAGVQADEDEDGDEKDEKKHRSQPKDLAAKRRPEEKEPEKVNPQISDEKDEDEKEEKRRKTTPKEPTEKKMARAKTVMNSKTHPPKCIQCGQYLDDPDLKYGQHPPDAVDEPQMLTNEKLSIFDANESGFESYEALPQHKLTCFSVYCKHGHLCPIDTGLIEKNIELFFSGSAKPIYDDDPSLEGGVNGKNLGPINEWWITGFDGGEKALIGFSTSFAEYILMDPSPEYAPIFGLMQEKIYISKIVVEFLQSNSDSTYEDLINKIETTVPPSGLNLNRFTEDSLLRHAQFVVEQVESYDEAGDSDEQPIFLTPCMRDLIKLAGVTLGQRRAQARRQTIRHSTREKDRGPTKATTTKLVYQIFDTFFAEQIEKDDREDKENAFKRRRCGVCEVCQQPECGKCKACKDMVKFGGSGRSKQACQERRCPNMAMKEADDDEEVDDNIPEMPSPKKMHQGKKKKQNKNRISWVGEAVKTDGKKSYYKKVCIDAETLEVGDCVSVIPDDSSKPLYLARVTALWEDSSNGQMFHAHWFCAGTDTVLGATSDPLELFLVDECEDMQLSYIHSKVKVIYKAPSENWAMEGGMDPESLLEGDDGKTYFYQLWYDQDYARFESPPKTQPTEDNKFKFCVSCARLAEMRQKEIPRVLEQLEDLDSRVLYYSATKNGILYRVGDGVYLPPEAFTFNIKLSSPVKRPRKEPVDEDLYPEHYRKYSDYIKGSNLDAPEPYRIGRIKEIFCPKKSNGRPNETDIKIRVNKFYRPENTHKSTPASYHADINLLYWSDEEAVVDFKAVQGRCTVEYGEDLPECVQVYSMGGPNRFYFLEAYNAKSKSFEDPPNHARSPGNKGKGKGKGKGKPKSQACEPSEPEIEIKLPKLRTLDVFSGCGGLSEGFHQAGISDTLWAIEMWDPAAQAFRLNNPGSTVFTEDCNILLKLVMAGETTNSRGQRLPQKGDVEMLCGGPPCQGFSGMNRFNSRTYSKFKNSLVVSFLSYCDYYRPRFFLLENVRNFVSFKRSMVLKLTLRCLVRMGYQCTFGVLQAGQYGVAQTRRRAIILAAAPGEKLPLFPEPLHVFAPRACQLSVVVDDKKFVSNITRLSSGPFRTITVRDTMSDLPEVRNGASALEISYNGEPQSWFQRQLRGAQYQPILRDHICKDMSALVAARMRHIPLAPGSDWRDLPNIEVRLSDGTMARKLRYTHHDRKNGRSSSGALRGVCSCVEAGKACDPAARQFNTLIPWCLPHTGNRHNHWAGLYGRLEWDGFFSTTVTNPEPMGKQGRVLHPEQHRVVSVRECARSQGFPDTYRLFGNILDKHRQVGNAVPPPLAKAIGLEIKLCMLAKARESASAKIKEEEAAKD
# [6] = molecular target: T1, DNA (cytosine-5)-methyltransferase 1; assay: Inhibition of DNMT1 in human MV4-11 cells at 1 uM incubated for 6 hrs in presence of MG132 by Western blot analysis; type: cell-based
# [7] = molecular target: T1, DNA (cytosine-5)-methyltransferase 1; assay: Inhibition of DNMT1 in human MV4-11 cells at 1 uM incubated for 6 hrs in presence of CQ by Western blot analysis; type: cell-based
# [8] = molecular target: T1, DNA (cytosine-5)-methyltransferase 1; assay: Inhibition of DNMT1 in human MV4-11 cells at 1 uM incubated for 6 hrs in presence of Z-VAD-FMK by Western blot analysis; type: cell-based
# [9] = molecular target: T1, DNA (cytosine-5)-methyltransferase 1; assay: Inhibition of DNMT1 in human HL-60 cells at 1 uM incubated for 6 hrs in presence of MG132 by Western blot analysis; type: cell-based
# [10] = molecular target: T1, DNA (cytosine-5)-methyltransferase 1; assay: Inhibition of DNMT1 in human HL-60 cells at 1 uM incubated for 6 hrs in presence of CQ by Western blot analysis; type: cell-based
# [11] = molecular target: T1, DNA (cytosine-5)-methyltransferase 1; assay: Inhibition of DNMT1 in human HL-60 cells at 1 uM incubated for 6 hrs in presence of Z-VAD-FMK by Western blot analysis; type: cell-based
# [12] = molecular target: T1, DNA (cytosine-5)-methyltransferase 1; assay: Inhibition of DNMT1 in human MV4-11 cells assessed as ABT1 promoter methylation at 300 nM incubated for 3 days by Bisulfite Sequencing PCR analysis (reference value: 99.3 %); type: cell-based; design: scale not given: the % may be the effect or the level left; conditions: time 3.0 day
# MV4-11 [13] = assay: Upregulation of p57 expression in human MV4-11 cells at 100 nM incubated for 2 days in presence of SAHA by RNA-Seq analysis; type: functional, cell-based; conditions: time 2.0 day
# MV4-11 [14] = assay: Upregulation of BLK expression in human MV4-11 cells at 100 nM incubated for 2 days in presence of SAHA by RNA-Seq analysis; type: functional, cell-based; conditions: time 2.0 day
# MV4-11 [15] = assay: Upregulation of S100A16 expression in human MV4-11 cells at 100 nM incubated for 2 days in presence of SAHA by RNA-Seq analysis; type: functional, cell-based; conditions: time 2.0 day
# [16] = molecular target: T1, DNA (cytosine-5)-methyltransferase 1; assay: Synergistic inhibition of DNMT1 in human MV4-11 cells at 100 nM incubated for 2 days in presence of SAHA by RNA-Seq analysis; type: cell-based; conditions: time 2.0 day
# [17] = molecular target: Histone deacetylase (Homo sapiens) (UniProt Q13547+O15379+Q9UBN7+Q92769+Q9UQL6+Q8WUI4+Q9BY41+Q96DB2+P56524+Q9UKV0+Q969S8); assay: Inhibition of HDAC in human MV4-11 cells at 100 nM incubated for 2 days in presence of SAHA by RNA-Seq analysis; type: cell-based; conditions: time 2.0 day
# MV4-11 [18] = assay: Downregulation of MYC expression in human MV4-11 cells at 100 nM incubated for 2 days in presence of SAHA by RNA-Seq analysis; type: functional, cell-based; conditions: time 2.0 day
# MV4-11 [19] = assay: Downregulation of GPR183 expression in human MV4-11 cells at 100 nM incubated for 2 days in presence of SAHA by RNA-Seq analysis; type: functional, cell-based; conditions: time 2.0 day
# MV4-11 [20] = assay: Downregulation of FOXH1 expression in human MV4-11 cells at 100 nM incubated for 2 days in presence of SAHA by RNA-Seq analysis; type: functional, cell-based; conditions: time 2.0 day
# MV4-11 [21] = assay: Downregulation of GLIS2 expression in human MV4-11 cells at 100 nM incubated for 2 days in presence of SAHA by RNA-Seq analysis; type: functional, cell-based; conditions: time 2.0 day
# MV4-11 [22] = assay: Inhibition of cell viability in human MV4-11 cells incubated for 4 days in presence of SAHA by CCK8 assay; type: functional, cell-based; conditions: MV4-11, 96 h
# HL-60 = assay: Inhibition of cell viability in human HL-60 cells incubated for 4 days in presence of SAHA by CCK8 assay; type: functional, cell-based; conditions: HL-60, 96 h
# Kasumi 1 = assay: Inhibition of cell viability in human Kasumi 1 cells incubated for 4 days in presence of SAHA by CCK8 assay; type: functional, cell-based; conditions: Kasumi 1, 96 h
# [23] = Inhibition of cell viability in human HSPC cells incubated for 4 days in presence of SAHA by CCK8 assay; type: toxicity, cell-based
# MV4-11 [24] = assay: Antitumor activity against human MV4-11 cells xenografted in BALB/c nude mouse at 30 mg/kg, ip qd for 27 days in presence of SAHA relative to control; type: functional; conditions: MV4-11, 648 h, time 27 day, read-out: TGI
# [25] = Toxicity in BALB/c nude mouse xenografted with human MV4-11 cells assessed as body weight loss at 30 mg/kg, ip qd for 27 days in presence of SAHA; type: organism-based; conditions: in vivo, 648 h, time 27 day
# MC-38 [26] = assay: Upregulation of Oas2 mRNA level in mouse MC38 cells at 1 to 3 uM incubated for 3 days in presence of SAHA by qRT-PCR analysis; type: functional, cell-based; conditions: dose 1-3 µM, time 3.0 day
# MC-38 [27] = assay: Upregulation of Isg15 mRNA level in mouse MC38 cells at 1 to 3 uM incubated for 3 days in presence of SAHA by qRT-PCR analysis; type: functional, cell-based; conditions: dose 1-3 µM, time 3.0 day
# MC-38 [28] = assay: Upregulation of IAPEz mRNA level in mouse MC38 cells at 1 to 3 uM incubated for 3 days in presence of SAHA by qRT-PCR analysis; type: functional, cell-based; conditions: dose 1-3 µM, time 3.0 day
# MC-38 [29] = assay: Antitumor activity against mouse MC38 cells allografted in immunodeficient BALB/c nude mouse at 30 mg/kg, ip qd for 15 days in presence of SAHA relative to control; type: functional; conditions: MC-38, 360 h, time 15 day, read-out: TGI
# [30] = Toxicity in immunodeficient BALB/c nude mouse allografted with mouse MC38 cells assessed as drug tolerance at 30 mg/kg, ip qd for 15 days in presence of SAHA; type: organism-based, MC-38; conditions: in vivo, 360 h, time 15 day
# [31] = Toxicity in immunodeficient BALB/c nude mouse allografted with mouse MC38 cells assessed as body weight loss at 30 mg/kg, ip qd for 15 days in presence of SAHA; type: organism-based, MC-38; conditions: in vivo, 360 h, time 15 day
# MC-38 [32] = assay: Immunomodulatory activity in mouse MC38 cells allografted in mouse assessed as accumulation of T cells at 30 mg/kg, ip qd in presence of SAHA; type: functional, organism-based
# MC-38 [33] = assay: Immunomodulatory activity in mouse MC38 cells allografted in mouse assessed as accumulation of NKT cells at 30 mg/kg, ip qd in presence of SAHA; type: functional, organism-based
# MC-38 [34] = assay: Immunomodulatory activity in mouse MC38 cells allografted in mouse assessed as increase in IFN-gamma-positive cells at 30 mg/kg, ip qd in presence of SAHA; type: functional, organism-based
# MC-38 [35] = assay: Immunomodulatory activity in mouse MC38 cells allografted in mouse assessed as polarization of macrophages towards tumor -suppressing M1 phenotype at 30 mg/kg, ip qd in presence of SAHA; type: functional, organism-based
# MC-38 [36] = assay: Immunomodulatory activity in mouse MC38 cells allografted in mouse assessed as inhibition of pro-tumor M2 polarization at 30 mg/kg, ip qd in presence of SAHA; type: functional, organism-based
structure (smiles),measurement,setting,value
CCc1c(C#N)c(SC(C(N)=O)c2ccccc2)nc(N2CCC(N)CC2)c1C#N (stereo not drawn),IC50,MV4-11 [1],> 5000 nM
same,inhibition in vivo at 45 mg/kg,MV4-11 [2],93%
same,Activity,[3],Toxic
same,Activity,[4],Toxic
same,ΔTm,[5],8 °C
same,inhibition,[6],inactive
same,inhibition,[7],Active
same,inhibition,[8],Active
same,inhibition,[9],inactive
same,inhibition,[10],Active
same,inhibition,[11],Active
same,Activity,[12],6.43%
same,Activity,MV4-11 [13],Active
same,Activity,MV4-11 [14],Active
same,Activity,MV4-11 [15],Active
same,inhibition,[16],Active
same,inhibition,[17],Active
same,Activity,MV4-11 [18],Active
same,Activity,MV4-11 [19],Active
same,Activity,MV4-11 [20],Active
same,Activity,MV4-11 [21],Active
same,IC50,MV4-11 [22],400 nM
same,IC50,HL-60,320 nM
same,IC50,Kasumi 1,380 nM
same,IC50 at 4 days,[23],800 nM
same,inhibition in vivo at 30 mg/kg,MV4-11 [24],89%
same,Activity,[25],Toxic
same,Activity,MC-38 [26],Active
same,Activity,MC-38 [27],Active
same,Activity,MC-38 [28],Active
same,inhibition in vivo at 30 mg/kg,MC-38 [29],24%
same,Activity,[30],Non-Toxic
same,Activity,[31],Non-Toxic
same,Activity,MC-38 [32],Active
same,Activity,MC-38 [33],Active
same,Activity,MC-38 [34],Active
same,Activity,MC-38 [35],Active
same,inhibition,MC-38 [36],Active
